Measurements reported in ChEMBL document CHEMBL5346964, “Discovery of LNP1892: A Precision Calcimimetic for the Treatment of Secondary Hyperparathyroidism” (J Med Chem, 2023).

Tests used:
[1] = molecular target: T1, Extracellular calcium-sensing receptor (Homo sapiens, UniProt P41180); assay: Agonist activity at human CaSR expresssed in HEK293 cells in presence of glucose by Fluo4NW dye based FLIPR assay; assay type: functional, cell-based; settings: read-out: EC50
T1 sequence (P41180 whole entry): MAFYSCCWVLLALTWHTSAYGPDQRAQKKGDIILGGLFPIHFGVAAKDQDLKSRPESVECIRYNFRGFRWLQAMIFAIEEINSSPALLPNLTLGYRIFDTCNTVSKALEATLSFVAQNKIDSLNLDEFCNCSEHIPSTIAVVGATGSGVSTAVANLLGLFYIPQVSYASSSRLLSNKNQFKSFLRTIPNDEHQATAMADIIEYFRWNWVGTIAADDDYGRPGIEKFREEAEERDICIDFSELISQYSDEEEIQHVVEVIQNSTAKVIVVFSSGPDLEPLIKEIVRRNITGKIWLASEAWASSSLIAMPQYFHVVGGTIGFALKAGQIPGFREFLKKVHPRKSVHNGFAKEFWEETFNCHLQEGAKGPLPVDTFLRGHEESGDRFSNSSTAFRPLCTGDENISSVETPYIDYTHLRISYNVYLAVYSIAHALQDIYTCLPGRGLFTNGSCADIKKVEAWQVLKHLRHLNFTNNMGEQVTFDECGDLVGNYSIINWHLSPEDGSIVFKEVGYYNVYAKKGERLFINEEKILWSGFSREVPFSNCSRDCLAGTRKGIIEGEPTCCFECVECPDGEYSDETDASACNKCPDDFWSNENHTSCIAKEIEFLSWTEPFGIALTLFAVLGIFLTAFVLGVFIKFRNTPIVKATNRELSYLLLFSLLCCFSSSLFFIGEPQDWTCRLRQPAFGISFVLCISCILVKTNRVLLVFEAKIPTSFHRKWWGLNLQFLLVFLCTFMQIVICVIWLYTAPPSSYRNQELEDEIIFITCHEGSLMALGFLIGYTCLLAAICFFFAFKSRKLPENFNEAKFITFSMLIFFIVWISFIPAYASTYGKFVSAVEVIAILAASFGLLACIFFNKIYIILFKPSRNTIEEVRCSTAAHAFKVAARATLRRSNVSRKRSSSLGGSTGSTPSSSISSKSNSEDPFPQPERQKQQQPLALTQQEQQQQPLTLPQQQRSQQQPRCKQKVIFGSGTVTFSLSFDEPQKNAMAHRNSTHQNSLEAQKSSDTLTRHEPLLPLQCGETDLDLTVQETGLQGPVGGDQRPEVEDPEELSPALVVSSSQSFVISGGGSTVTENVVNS

hERG = hERG (Homo sapiens, UniProt Q12809); assay: Inhibition of hERG at 1 uM relative to control; assay type: toxicity
Chain of hERG (Q12809 whole entry): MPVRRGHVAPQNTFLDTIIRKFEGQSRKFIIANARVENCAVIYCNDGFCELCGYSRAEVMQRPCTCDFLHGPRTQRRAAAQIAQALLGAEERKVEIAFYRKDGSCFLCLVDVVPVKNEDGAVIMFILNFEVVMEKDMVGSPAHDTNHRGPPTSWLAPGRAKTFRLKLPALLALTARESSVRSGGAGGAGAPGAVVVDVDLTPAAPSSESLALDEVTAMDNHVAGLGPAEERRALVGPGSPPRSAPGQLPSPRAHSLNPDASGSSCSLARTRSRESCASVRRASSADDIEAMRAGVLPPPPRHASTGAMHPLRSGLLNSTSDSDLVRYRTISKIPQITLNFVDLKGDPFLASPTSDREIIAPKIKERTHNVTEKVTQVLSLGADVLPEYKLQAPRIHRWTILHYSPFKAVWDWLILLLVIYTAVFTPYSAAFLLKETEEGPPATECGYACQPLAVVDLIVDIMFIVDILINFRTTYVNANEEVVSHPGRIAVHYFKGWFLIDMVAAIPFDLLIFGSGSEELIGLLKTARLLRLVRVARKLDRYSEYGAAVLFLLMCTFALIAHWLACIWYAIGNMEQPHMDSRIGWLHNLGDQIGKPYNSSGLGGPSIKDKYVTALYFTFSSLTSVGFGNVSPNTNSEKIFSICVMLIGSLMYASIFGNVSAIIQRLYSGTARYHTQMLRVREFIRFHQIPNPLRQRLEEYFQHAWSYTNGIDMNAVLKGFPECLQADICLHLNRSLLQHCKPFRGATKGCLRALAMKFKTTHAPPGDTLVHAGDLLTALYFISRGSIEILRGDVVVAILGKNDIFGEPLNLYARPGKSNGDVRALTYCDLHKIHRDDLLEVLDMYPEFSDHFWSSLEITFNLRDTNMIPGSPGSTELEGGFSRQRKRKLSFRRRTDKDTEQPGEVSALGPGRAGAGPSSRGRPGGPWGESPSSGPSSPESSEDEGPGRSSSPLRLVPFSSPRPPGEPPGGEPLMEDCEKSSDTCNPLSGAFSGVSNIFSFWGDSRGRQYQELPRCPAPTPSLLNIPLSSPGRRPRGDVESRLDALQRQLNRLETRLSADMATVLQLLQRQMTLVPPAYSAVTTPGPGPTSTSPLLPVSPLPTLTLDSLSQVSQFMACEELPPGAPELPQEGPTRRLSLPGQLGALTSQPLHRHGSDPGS

[2] = Cmax in Sprague-Dawley rat at 1 mg/kg, iv measured upto 24 hrs by LC-MS/MS analysis; assay type: ADME, organism-based; design: dose 1 mg/kg, time < 24 hrs, route iv; settings: in vivo
[3] = Effect on parathyroid hormone in overnight fasted adenine diet-induced chronic kidney disease Wistar rat model plasma assessed as reduction in PTH level at 1 mg/kg, po measured after 1 hrs of post treatment by sandwich ELISA analysis; assay type: functional; design: scale not given: the % may be the effect or the level left
Rattus norvegicus [4] = assay: Acute effect on parathyroid hormone in overnight fasted adenine diet-induced chronic kidney disease Wistar rat model assessed as reduction in plasma PTH level at 10 mg/kg, po measured after 2 hrs of post treatment by sandwich ELISA analysis; assay type: functional; design: scale not given: the % may be the effect or the level left
Rattus norvegicus [5] = assay: Acute effect on parathyroid hormone in overnight fasted adenine diet-induced chronic kidney disease Wistar rat model plasma assessed as reduction in plasma PTH level at 1 mg/kg, po measured after 4 hrs of post treatment by sandwich ELISA analysis; assay type: functional; design: scale not given: the % may be the effect or the level left
CYP2E1 = CYP2E1 (Homo sapiens, UniProt P05181); assay: Inhibition of CYP2E1 in human liver microsomes at 10 uM preincubated for 5 mins followed by NADPH addition by LC-MS/MS analysis relative to control; assay type: ADME, Microsome
Chain of CYP2E1 (P05181 whole entry): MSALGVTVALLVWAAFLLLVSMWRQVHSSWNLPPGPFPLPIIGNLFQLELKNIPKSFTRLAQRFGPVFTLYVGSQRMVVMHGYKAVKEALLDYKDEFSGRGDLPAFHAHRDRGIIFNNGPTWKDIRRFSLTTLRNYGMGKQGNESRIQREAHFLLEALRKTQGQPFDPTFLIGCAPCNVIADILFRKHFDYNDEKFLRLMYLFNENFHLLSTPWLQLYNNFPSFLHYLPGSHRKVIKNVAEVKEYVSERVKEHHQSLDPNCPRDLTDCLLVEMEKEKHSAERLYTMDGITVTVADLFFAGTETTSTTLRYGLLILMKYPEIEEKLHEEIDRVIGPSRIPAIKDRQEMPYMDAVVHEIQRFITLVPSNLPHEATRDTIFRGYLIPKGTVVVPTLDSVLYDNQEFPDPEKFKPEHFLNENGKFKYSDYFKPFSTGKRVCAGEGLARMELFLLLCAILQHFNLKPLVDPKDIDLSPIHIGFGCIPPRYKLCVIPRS

[6] = Apparent permeability across basolateral to apical side in human Caco-2 cells at 5 uM measured after 30 to 120 mins by LC-MS/MS analysis; assay type: ADME, cell-based; settings: time 30-120 min
[7] = Kinetic solubility of compound upto 500 uM in 0.1N NaOH measured after 16 hrs under shaking condition by UV-visible method; assay type: physicochemical; settings: read-out: Kinetic_solubility
[8] = Kinetic solubility of compound in FeSSIF upto 500 uM measured after 16 hrs under shaking condition by UV-visible method; assay type: physicochemical; settings: read-out: Kinetic_solubility
[9] = Kinetic solubility of compound upto 500 uM at pH 7.4 measured after 16 hrs under shaking condition by UV-visible method; assay type: physicochemical; settings: buffer, read-out: Kinetic_solubility
[10] = Chemical stability of the compound at pH 4 measured after 0.5 to 4 hrs; assay type: physicochemical; settings: buffer, time 0.5-4 hrs
[11] = Chemical stability of the compound at pH 9 measured after 0.5 to 4 hrs; assay type: physicochemical; settings: buffer, time 0.5-4 hrs
[12] = Chemical stability of the compound in 0.1N HCL measured after 0.5 to 4 hrs; assay type: physicochemical; settings: buffer; time 0.5-4 hrs
[13] = Volume of distribution at steady state in Beagle dog at 1 mg/kg, iv measured upto 24 hrs by LC/MS-MS analysis; assay type: ADME, organism-based, Canis lupus familiaris; settings: in vivo, read-out: Vdss
[14] = Cmax in Sprague-Dawley rat at 10 mg/kg, po measured upto 24 hrs by LC/MS-MS analysis; assay type: ADME, organism-based; design: dose 10 mg/kg, time < 24 hrs, route po; settings: in vivo
[15] = Drug excretion in rat assessed as drug recovery in urine at 10 mg/kg, po; assay type: ADME, organism-based; settings: read-out: Drug recovery
[16] = Drug excretion in rat assessed as drug recovery in feces at 1 mg/kg, iv; assay type: ADME, organism-based; settings: faeces, read-out: Drug recovery
[17] = Ratio of drug concentration in brain to plasma in Sprague-Dawley rat at 10 mg/kg, po measured upto 24 hrs by LC-MS/MS analysis; assay type: ADME, organism-based; settings: read-out: BPR
[18] = AUC(0 to t) in rat at 25 mg/kg per day, po via gavage administered for 13 weeks; assay type: ADME, organism-based; design: dose 25 mg/kg, time 13 weeks, route po; settings: in vivo
[19] = Toxicity in rat assessed as NOAEL; settings: in vivo
[20] = Toxicity in monkey assessed as NOAEL; design: species or system Macaca mulatta; settings: rhesus monkey, in vivo
[21] = molecular target: T2, 5-hydroxytryptamine receptor 1A (Homo sapiens) (UniProt P08908); assay: Inhibition of human recombinant 5-HT1A receptor at 10 uM relative to control
T2 sequence (whole entry): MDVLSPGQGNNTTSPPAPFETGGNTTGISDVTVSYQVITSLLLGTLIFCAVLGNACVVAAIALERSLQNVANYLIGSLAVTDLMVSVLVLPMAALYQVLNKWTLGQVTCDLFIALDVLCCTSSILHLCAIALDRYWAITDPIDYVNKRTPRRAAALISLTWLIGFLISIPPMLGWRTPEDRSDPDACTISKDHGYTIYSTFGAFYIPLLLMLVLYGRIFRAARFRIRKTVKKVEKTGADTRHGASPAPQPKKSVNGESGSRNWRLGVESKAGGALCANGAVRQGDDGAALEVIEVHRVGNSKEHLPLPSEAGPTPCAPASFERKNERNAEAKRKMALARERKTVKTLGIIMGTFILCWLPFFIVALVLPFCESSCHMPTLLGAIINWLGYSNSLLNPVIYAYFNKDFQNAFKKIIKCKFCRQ

Work on `Cc1ccc([C@@H]2C[C@H](CN[C@H](C)c3cccc4ccccc34)Oc3ccccc32)cc1C(=O)O.Cl` yielded an EC50 [1] of 6.4 nM, an inhibition at 1 µM (hERG) of 1% and a Cmax [2] of 2 µM. The Activity [3] was 95%, the Activity (Rattus norvegicus [4]) was 89% and the Activity (Rattus norvegicus [5]) was 84%. For the same compound, the inhibition at 10 µM (CYP2E1) was 0%, the Papp B→A at 5 µM [6] was 6.3 ×10⁻⁶ cm/s and the solubility kinetic at 16 h, 500 µM [7] was greater than 300 µM. For the same compound, the solubility kinetic at 16 h, 500 µM [8] was greater than 300 µM, the solubility kinetic at 16 h, 500 µM [9] was greater than 200 µM and the Stability [10] was “Stable”. The Stability [11] was “Stable”, the Stability [12] was “Stable” and the Vd [13] was 0.7 L/kg. The Cmax [14] was 14 µM, the dose excreted [15] was less than 1% and the dose excreted [16] was 10%. The Kp at 24 h [17] was 0.2, the AUC(0-t) at 2184 h [18] was 98900 ng·h/mL and the NOAEL [19] was 25 mg/kg/day. It also gave an NOAEL [20] of 50 mg/kg/day and an inhibition [21] greater than 50%.
